Consider 19 compounds from patent US11999752B2, “Vinyl imidazole compounds as inhibitors of KRAS” (Incyte Corporation, priority 2020, dated 2024).

Read-outs that look alike come from different tables or passages of the source. Where only a bound is given, the exact number is not on record here.

The target of one assay is KRAS G12C (Homo sapiens, UniProt P01116, G12C). Put plainly: GDP-GTP exchange assay (fluorescence based guanine nucleotide exchange, bodipy-GDP for GppNHp, SOS1). As to conditions: bodipy-loaded KRAS G12C 2.5 nM, GppNHp 500 uM, SOS1 150 nM; 2 hours pre-incubation with inhibitor; read-out: G12C_exchange IC50. It is filed as biochemical. The method, then: Example A. GDP-GTP Exchange Assay.
The inhibitor potency of the exemplified compounds was determined in a fluorescence based guanine nucleotide exchange assay, which measures the exchange of bodipy-GDP (fluorescently labeled GDP) for GppNHp (Non-hydrolyzable GTP analog) to generate the active state of KRAS in the presence of SOS1 (guanine nucleotide exchange factor). Inhibitors were serially diluted in DMSO and a volume of 0.1 μL was transferred to the wells of a black low volume 384-well plate. 5 μL/well volume of bodipy-loaded KRAS G12C diluted to 5 nM in assay buffer (25 mM Hepes pH 7.5, 50 mM NaCl, 10 mM MgCl2 and 0.01% Brij-35) was added to the plate and pre-incubated with inhibitor for 2 hours at ambient temperature. Appropriate controls (enzyme with no inhibitor or with a G12C inhibitor (AMG -510)) were included on the plate. The exchange was initiated by the addition of a 5 μL/well volume containing 1 mM GppNHp and 300 nM SOS1 in assay buffer. The 10 μL/well reaction concentration of the bodipy-loaded KRAS G12C, GppNHp, and SOS1 were 2.5 nM, 500 uM, and 150 nM, respectively. The reaction plates were incubated at ambient temperature for 2 hours, a time estimated for complete GDP-GTP exchange in the absence of inhibitor. For the KRAS G12D and G12V mutants, similar guanine nucleotide exchange assays were used with 2.5nM as final concentration for the bodipy loaded KRAS proteins and with 4 hours and 3 hours incubation after adding GppNHp-SOS1 mixture for G12D and G12V respectively. A cyclic peptide described to selectively bind G12D mutant (Sakamoto et al., BBRC 484.3 (2017), 605-611) or internal compounds with confirmed binding were used as positive controls in the assay plates. Fluorescence intensities were measured on a PheraStar plate reader instrument (BMG Labtech) with excitation at 485 nm and emission at 520 nm.
Either GraphPad prism or XLfit was used to analyze the data. The IC50 values were derived by fitting the data to a four parameter logistic equation producing a sigmoidal dose -response curve with a variable Hill coefficient. Y=Bottom+(Top−Bottom)/(1+10^((LogIC50−X)*Hill slope)); XLfit equation: Y=(A+((B−A)/(1+((X/C)^D)))) where X is the logarithm of inhibitor concentration and Y is the response. Prism equation: […]

Assay [1] relates to MIA PaCa-2 (KRAS G12C) cells. Kind of assay: Cellular pERK HTRF assay. It counts as cell-based, human. As to conditions: KRAS_G12C pERK assay, cells incubated with compounds 4 hours, read-out: G12C_pERK IC50. The protocol:
Example C: Cellular pERK HTRF Assay
MIA PaCa-2 (KRAS G12C; ATCC® CRL-1420), A427 (KRAS G12D; ATCC® HTB53), HPAF-II (KRAS G12D; ATCC® CRL-1997) and NCI-H838 (KRAS WT; ATCC® CRL-5844) cells are purchased from ATCC and maintained in RPMI 1640 media supplemented with 10% FBS (Gibco/Life Technologies). The cells are plated at 5000 cells per well (8 uL) into Greiner 384-well low volume, flat-bottom, tissue culture treated white plates and incubated overnight at 37° C., 5% CO2. The next morning, test compound stock solutions are diluted in media at 3× the final concentration, and 4 uL are added to the cells. The plate is mixed by gentle rotation for 30 seconds (250rpm) at room temperature. The cells are incubated with the KRAS G12C and G12D compounds for 4 hours or 2 hours respectively at 37° C., 5% CO2.
4 uL of 4× lysis buffer with blocking reagent (1:25) (Cisbio) are added to each well and plates are rotated gently (300 rpm) for 30 minutes at room temperature. 4 uL per well of Cisbio anti Phospho-ERK 1/2 d2 is mixed with anti Phospho-ERK 1/2 Cryl)tate (1:1) are added to each well, mixed by rotation and incubated overnight in the dark at room temperature. Plates are read on the Pherastar plate reader at 665 nm and 620 nm wavelengths. IC50 determination is performed by fitting the curve of inhibitor percent inhibition versus the log of the inhibitor concentration using the GraphPad Prism 7 software.

Take “4-(1-cyclopropyl-3-vinyl-5,6-dihydroimidazo[1,5-a]pyrazin-7(8H)-yl)-7-(2-fluoro-6-hydroxyl)henyl)-1-(2-isopropyl-4-methylpyridin-3-yl)quinazolin-2(1H)-one [Example 8]”: the IC50 at KRAS G12C is 0.1 to 1 µM.

As to `C=Cc1ncc2n1CCN(c1nc(OCC3CCCN3C)nc3c(F)c(-c4cc(O)cc5ccccc45)c(Cl)cc13)C2` (racemic) [Example 11, 4-(6-chloro-8-fluoro-2-((1-methylpyrrolidin-2-yl)methoxy)-4-(3-vinyl-5,6-dihydroimidazo[1,5-a]pyrazin-7(8H)-yl)quinazolin-7-yl)naphthalen-2-ol], the 50% inhibitory concentration (IC50) was at most 0.1 µM at KRAS G12C and 1 to 5 µM in assay [1] (Homo sapiens, MIA PaCa-2).

Regarding `C=Cc1ncc2n1CCN(c1nc(OCC3CCCN3C)nc3c(F)c(-c4c(O)cccc4F)c(Cl)cc13)C2` (racemic) [Example 12, 2-(6-chloro-8-fluoro-2-((1-methylpyrrolidin-2-yl)methoxy)-4-(3-vinyl-5,6-dihydroimidazo[1,5-a]pyrazin-7(8H)-yl)quinazolin-7-yl)-3-fluorophenol], the IC50 lay within 0.1 to 1 µM on KRAS G12C and 5 to 10 µM in assay [1] (Homo sapiens, MIA PaCa-2).

With `C=Cc1ncc2n1CCN(c1nc(OCC3CCCN3C)nc3c(F)c(-c4c(C)ccc5[nH]ncc45)c(Cl)cc13)C2` (racemic) [Example 13, 6-chloro-8-fluoro-7-(5-methyl-1H-indazol-4-yl)-2-((1-methylpyrrolidin-2-yl)methoxy)-4-(3-vinyl-5,6-dihydroimidazo[1,5-a]pyrazin-7(8H)-yl)quinazoline], the concentration for half-maximal inhibition (IC50) on KRAS G12C lay in the range of 0.1 to 1 µM; in assay [1] (Homo sapiens, MIA PaCa-2), 5 to 10 µM.

In the case of `C=Cc1ncc2n1CCN(c1nc(OC3CCCN(C)C3)nc3c(F)c(-c4cc(O)cc5ccccc45)c(Cl)cc13)C2` (racemic) [Example 18, 4-(6-chloro-8-fluoro-2-((1-methylpiperidin-3-yl)oxy)-4-(3-vinyl-5,6-dihydro-imidazo[1,5-a]pyrazin-7(8H)-yl)quinazolin-7-yl)naphthalen-2-ol], the IC50 on KRAS G12C lay in the range of 0.1 to 1 µM; in assay [1] (Homo sapiens, MIA PaCa-2) it was 5 to 10 µM.

Consider `C=Cc1ncc2n1CCN(c1nc(=O)n(-c3c(C)ccnc3C(C)C)c3nc(-c4c(O)cccc4F)c(F)cc13)C2` (single isomer, unassigned) [Example 1], for which the 50% inhibitory concentration (IC50) on KRAS G12C is 0.1 to 1 µM; in assay [1] (Homo sapiens, MIA PaCa-2) it was 5 to 10 µM.

Regarding `C=Cc1ncc2n1CCN(c1nc(=O)n(-c3c(C)ccnc3C(C)C)c3nc(-c4c(O)cccc4F)c(F)cc13)C2` (single isomer, unassigned) [Example 2], the results for the IC50 (on KRAS G12C; in assay [1]) were 0.1 to 1 µM and 5 to 10 µM, respectively.

For the compound `C=Cc1ncc2n1CCN(c1nc(=O)n(CC3CC3)c3nc(-c4c(O)cccc4F)c(F)cc13)C2` [Example 3], the concentration for half-maximal inhibition (IC50) at KRAS G12C fell in the range of 0.1 to 1 µM; in assay [1] (Homo sapiens, MIA PaCa-2), 5 to 10 µM.

Consider `C=Cc1ncc2n1CCN(c1nc(=O)n(C(C)C)c3nc(-c4c(O)cccc4F)c(F)cc13)C2` [Example 4], for which the 50% inhibitory concentration (IC50) lay within 0.1 to 1 µM at KRAS G12C and 5 to 10 µM in assay [1] (Homo sapiens, MIA PaCa-2).

For the compound `C=Cc1ncc2n1CCN(c1nc(=O)n(CCOC)c3nc(-c4c(O)cccc4F)c(F)cc13)C2` [Example 5], the IC50 at KRAS G12C lay within 1 to 5 µM.

On to `Cc1ccnc(C(C)C)c1-n1c(=O)nc(N2CCn3c(cnc3/C=C/c3cc(F)cc(F)c3)C2)c2cc(F)c(-c3c(O)cccc3F)nc21` [Example 6], for which, at KRAS G12C, the IC50 was 1 to 5 µM.

Regarding `Cc1ccnc(C(C)C)c1-n1c(=O)nc(N2CCn3c(cnc3/C=C/c3ccc(F)cc3F)C2)c2cc(F)c(-c3c(O)cccc3F)nc21` [Example 7], the half-maximal inhibitory concentration (IC50) on KRAS G12C lay within 1 to 5 µM.

For the compound `C=Cc1nc(CN2CC(C(F)(F)F)C2)c2n1CCN(c1nc(=O)n(-c3c(C)ccnc3C(C)C)c3nc(-c4c(O)cccc4F)c(F)cc13)C2` [Example 9], the IC50 at KRAS G12C was in the range of 1 to 5 µM.

With `C=Cc1nc(CN(C)CC#N)c2n1CCN(c1nc(=O)n(-c3c(C)ccnc3C(C)C)c3nc(-c4c(O)cccc4F)c(F)cc13)C2` [Example 10], the half-inhibitory concentration (IC50) at KRAS G12C lay within 1 to 5 µM.

Regarding `C=Cc1ncc2n1CCN(c1nc(OCCN(C)C)nc3c(F)c(-c4cc(O)cc5ccccc45)c(Cl)cc13)C2` [Example 14, 4-(6-chloro-2-(2-(dimethylamino)ethoxy)-8-fluoro-4-(3-vinyl-5,6-dihydroimidazo[1,5-a]pyrazin-7(8H)-yl)quinazolin-7-yl)naphthalen-2-ol], the IC50 on KRAS G12C was in the range of 0.1 to 1 µM; in assay [1] (Homo sapiens, MIA PaCa-2) it was 1 to 5 µM.

On to `C=Cc1ncc2n1CCN(c1nc(OC3CCN(C)CC3)nc3c(F)c(-c4cc(O)cc5ccccc45)c(Cl)cc13)C2` [Example 15, 4-(6-chloro-8-fluoro-2-((1-methylpiperidin-4-yl)oxy)-4-(3-vinyl-5,6-dihydroimidazo[1,5-a]pyrazin-7(8H)-yl)quinazolin-7-yl)naphthalen-2-ol], for which the IC50 on KRAS G12C is 0.1 to 1 µM; in assay [1] (Homo sapiens, MIA PaCa-2) it was 5 to 10 µM.

As to `C=Cc1ncc2n1CCN(c1nc(OCCN3CCOCC3)nc3c(F)c(-c4cc(O)cc5ccccc45)c(Cl)cc13)C2` [Example 16, 4-(6-chloro-8-fluoro-2-(2-morpholinoethoxy)-4-(3-vinyl-5,6-dihydroimidazo-[1,5-a]pyrazin-7(8H)-yl)quinazolin-7-yl)naphthalen-2-ol], the half-maximal inhibitory concentration (IC50) on KRAS G12C was 0.1 to 1 µM; in assay [1] (Homo sapiens, MIA PaCa-2), 5 to 10 µM.

`C=Cc1ncc2n1CCN(c1nc(OC[C@@H]3CCCN3C)nc3c(F)c(-c4cc(O)cc5ccccc45)c(Cl)cc13)C2` [Example 17, 4-(6-chloro-8-fluoro-2-(((S)-1-methylpyrrolidin-2-yl)methoxy)-4-(3-vinyl-5,6-dihydroimidazo[1,5-a]pyrazin-7(8H)-yl)quinazolin-7-yl)naphthalen-2-ol]: the 50% inhibitory concentration (IC50) on KRAS G12C lay in the range of 0.1 to 1 µM; in assay [1] (Homo sapiens, MIA PaCa-2), 1 to 5 µM.

Regarding `C=Cc1ncc2n1CCN(c1nc(N3CC(N(C)C)C3)nc3c(F)c(-c4cc(O)cc5ccccc45)c(Cl)cc13)C2` [Example 19, 4-(6-chloro-2-(3-(dimethylamino)azetidin-1-yl)-8-fluoro-4-(3-vinyl-5,6-dihydroimidazo[1,5-a]pyrazin-7(8H)-yl)quinazolin-7-yl)naphthalen-2-ol], the concentration for half-maximal inhibition (IC50) at KRAS G12C was in the range of 0.1 to 1 µM; in assay [1] (Homo sapiens, MIA PaCa-2), 1 to 5 µM.
